Experiments:
[1] = tested on: pathogenic Th clones from SNF1 mice; experiment: Stimulation of nucleosome-specific pathogenic Th clones from SNF1 mice by eluted/synthetic peptides; type: cell-based, mouse; settings: A20 or splenic B+Mφ as APC
Procedure: Fresh splenic, CD4^+ T cells (5×10^5/well) were co-cultured in triplicate wells at an initial concentration of 5×10^5 cells per well, with 10^6 cells per well of either irradiated B+Mφ or mitomycin-C treated A20 APC. Varying concentrations of either control or test peptides were added and the cultures were adjusted to 200 microliters final volume of HL-1 serum-free medium (Hycor Biomedical Inc., Irvine, Calif.) cultures were incubated for 96 hours in flat bottom 96-well plates, and at 18 hours prior to harvesting the cells, 1 microcurie of 3H-Thymidine was added to each well. The incorporated radioactivity was measured by scintillation counting. The Stimulation Index (SI) was calculated by dividing the mean counts per minute (cpm) incorporated in co-cultures of T cells and APC with test peptide by the mean cpm incorporated in control peptide co-cultures. In the case of cytokine assays, experiments were carried out as described for the proliferation assays except that the culture supernatants were removed from duplicate co-culture wells after 24-46 hours of incubation and cytokine assays were performed.
An aliquot of 50 microliters from each HPLC fraction was assayed for stimulating ability as described above. Four characterized Th clones were used as indicators of cytokine secretion (IL-2 and/or IL-4) in response to the peptide fractions, using A20 or splenic B+Mψ as APCs (Adams, et al., 1991, Proc. Natl. Acad. Sci. USA 88:11271-11275; Shi, et al., 1998, J. Exp. Med. 187:367-378). […] Only two out of one hundred fractions tested were able to stimulate Th cell clones. […] The latter was further separated as described, and tested for active fractions of HPLC purified peptides.. Three naturally processed and presented, stimulatory epitopes were identified using these procedures. The sequences of the peptides are as follows: SQKEEEEGAQREKE (EP-1, SEQ ID NO: 23); DWMEEEHGAQREKE (EP-2, SEQ ID NO: 24); and […] (EP-3, or H522-42, SEQ ID NO: 25). The first two peptides were homologous to sequences in a transcription factor, BRN-3, which is identical in chicken, mice and humans (GenBank). […] EP-1 is highly homologous to EP-2, but it also matched a sequence in cytomegalovirus envelope protein at aa position 57-70. Most likely these peptides are derived from some transcription factor in the chromatin that was incubated with the APC. The third sequence (EP-3) was derived from histone H5 (aa position 22-42) in chicken nucleosome, which is homologous to histone H1 sequence of mice and humans at amino acid position 22-42 ([…], SEQ ID NO:26). […] Therefore, the mouse H122-42 is the autoantigenic peptide in mice and is also referred to herein as EP-3. Nested sequences and unrelated sequences that were obtained in the active fractions from the eluates were also synthesized and re-tested.

[2] = tested on: Th clones 1D12, 5E9, 3F6, 1G1; experiment: Helper assay: Th clones co-cultured with splenic B cells from SNF1 mice in presence of peptide; type: cell-based, mouse; settings: responder Th clones 5E9 and 3F6
Procedure: IgG autoantibodies to ssDNA, dsDNA, histones, and nucleosomes were quantitated using an ELISA as described previously (Mohan, et al., 1995, J. Immunol., 154:1470-1480; Mohan, et al., 1993, J. Exp. Med. 177:1367-1381; Burlingame, et al., 1993, J. Clin. Invest. 91:1687-1696; Losman, et al., 1992, J. Immunol., 148:1561-1569). Sera were diluted 1:100 and heat-inactivated before use. Serum from normal BALB/c mice were used as negative control. Anti-DNA mAbs 564 and 205 were used to generate standard curves (Adams, et al., 1991, Proc. Natl. Acad. Sci. USA 88:11281-11275; Mohan, et al., 1995, J. Immunol., 154:1470-1480; Mohan, et al., 1993, J. Exp. Med. 177:1367-1381; Sainis and Datta, 1988, J. Immunol. 140:2215-2224). For IgG autoantibodies to ssDNA, histones and nucleosomes, 1 unit per milliliter was considered to be equivalent to the activity of one microgram per milliliter of mAb 564, which recognizes all three autoantigens (Mohan, et al., 1995, J. Immunol., 154:1470-1480; Mohan, et al., 1993, J. Exp. Med. 177:1367-1381), and for IgG anti-dsDNA, 1 unit per milliliter was equivalent to the binding of 0.6 micrograms per milliliter of the mAb 205.
After seven days of co-culture, the supernatants were assayed for IgG antibodies to the autoantigens (ds-DNA, ss-DNA, nucleosome, and histone) by ELISA. […]

SNF1 mice = experiment: Acceleration of SLE-associated nephritis by immunization with eluted peptides in adjuvant; type: in vivo, mouse
Excerpt: The animals received three more injections at two weeks interval with 50 micrograms of either an eluted peptide or the control peptide absorbed on alum (Pierce Chemical Co., Rockford, Ill.).

STDHPKYSDMIVAAIQAEKNR (Histone fragment) [H122-42]
stimulation of pathogenic Th clones [1]: equivalent to the chicken H52242 peptide
stimulation of pathogenic Th clones ([1]; listed as EP-3): stimulatory
augmentation of autoantibody-inducing help [2]: almost as much as the whole nucleosome
development of severe nephritis (SNF1 mice; by 28 weeks of age): all the EP-3 immunized mice developed severe nephritis
onset/rate of disease relative to control group (CFA alone or OVA peptide in CFA) (SNF1 mice; immunization from 12 weeks): developed severe nephritis earlier
time to severe nephritis in some immunized animals (SNF1 mice; just after the first booster immunization): 2-3 weeks
mice succumbed to severe lupus nephritis (SNF1 mice; within four weeks of the first injection, peptide in CFA): Eighty percent

— patent US6468537B1, “Localization of major peptide autoepitopes for nucleosome specific T cells of systemic lupus erythematosus” (The Board of Trustees of Northwestern University, priority 1999, dated 2002)
